Data: patent US6737383B1, “Herbicidal oxadiazolidines” (priority 1999, dated 2004)

Experiments:
bedstraw = test: Test B pre/postemergence bedstraw; type: in vivo, Galium aparine
In short: (§1)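 Test chemicals in a non-phytotoxic solvent mixture with surfactant were sprayed preemergence onto planted seeds and postemergence onto plants 2 to 18 cm tall (1- to 4-leaf stage). After twelve to sixteen days in a greenhouse, injury was visually rated against untreated controls from 0 (no effect) to 10 (complete control).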

blackgrass = test: Test B pre/postemergence blackgrass; type: in vivo, Alopecurus myosuroides
In short: as §1

surinam grass = test: Test B pre/postemergence surinam grass; type: in vivo, Brachiaria decumbens
In short: as §1

smallflower flatsedge = test: Test B flood test smallflower flatsedge; type: in vivo, Cyperus difformis
In short: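 Plants were grown to the 2-leaf stage before treatment with test chemical, then held in a greenhouse for twelve to sixteen days. Injury was visually rated against untreated controls on a 0–10 scale, where 0 is no effect and 10 is complete control.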

[1] = Postemergence, Rate 125 g/ha, scale of 0 to 10 where 0 is no effect and 10 is complete control
[2] = Preemergence, Rate 125 g/ha, 0 is no effect, 10 is complete control
[3] = Preemergence, Rate 250 g/ha, scale 0 to 10, 0 is no effect, 10 is complete control
[4] = Preemergence, Rate 500 g/ha, scale 0 to 10 (0 no effect, 10 complete control)
[5] = Rate 62 g/ha, Postemergence, scale of 0 to 10 where 0 is no effect and 10 is complete control
[6] = Rate 250 g/ha, Postemergence, scale 0 to 10, 0 is no effect, 10 is complete control
[7] = Preemergence, Rate 62 g/ha, scale 0 to 10 (0 no effect, 10 complete control)
[8] = Postemergence, Rate 62 g/ha, scale 0 to 10, 0 is no effect, 10 is complete control
[9] = Postemergence, Rate 250 g/ha, scale 0 to 10, 0 no effect, 10 complete control
[10] = Preemergence, Rate 62 g/ha, scale 0 to 10, 0 is no effect, 10 is complete control
[11] = Preemergence, Rate 125 g/ha, scale 0 to 10 (0 no effect, 10 complete control)
[12] = Preemergence, Rate 250 g/ha, scale of 0 to 10 where 0 is no effect and 10 is complete control
[13] = Preemergence, Rate 500 g/ha, scale 0 (no effect) to 10 (complete control)
[14] = Rate 125 g/ha, Postemergence, scale 0 to 10, 0 no effect, 10 complete control
[15] = Rate 500 g/ha, Postemergence, 0 to 10 scale (0 no effect, 10 complete control)
[16] = Preemergence, Rate 62 g/ha, scale of 0 to 10 where 0 is no effect and 10 is complete control
[17] = Preemergence, Rate 500 g/ha, scale of 0 to 10 where 0 is no effect and 10 is complete control
[18] = Rate 125 g/ha, Postemergence, scale 0 to 10
[19] = Rate 125 g/ha, Preemergence, scale of 0 to 10 where 0 is no effect and 10 is complete control
[20] = Rate 500 g/ha, Postemergence, scale 0 to 10, 0 no effect, 10 complete control
[21] = Postemergence, Rate 250 g/ha, scale 0 to 10
[22] = Postemergence, Rate 500 g/ha, scale of 0 to 10 where 0 is no effect and 10 is complete control
[23] = Preemergence, Rate 125 g/ha, scale of 0 to 10 where 0 is no effect and 10 is complete control
[24] = Preemergence, Rate 500 g/ha, scale 0 to 10, 0 is no effect, 10 is complete control
[25] = Rate 125 g/ha, Postemergence, scale 0 to 10, 0 is no effect, 10 is complete control
[26] = Preemergence, Rate 31 g/ha, visual rating, scale 0 to 10 (0 no effect, 10 complete control)
[27] = Preemergence, Rate 125 g/ha, scale 0 to 10, 0 is no effect, 10 is complete control
[28] = Postemergence, Rate 31 g/ha, visual rating, scale 0 to 10 (0 no effect, 10 complete control)
[29] = Postemergence, Rate 125 g/ha, scale 0 to 10, 0 is no effect, 10 is complete control
[30] = Rate 62 g/ha, Postemergence, scale 0 to 10, 0 no effect, 10 complete control

Cc1ccccc1Cn1c(=O)on(C(=O)N(c2ccc(Cl)cc2)C(C)C)c1=O [Compound 136]
Bedstraw plant response rating (bedstraw; [1]): 5 | Bedstraw plant response rating (0 to 10 scale) (bedstraw; [2]): 0 | Bedstraw plant response rating (bedstraw; [3]): 0 | Bedstraw plant response rating (bedstraw; [4]): 0 | Bedstraw plant response rating (bedstraw; [5]): 2 | Plant response rating, Bedstraw (bedstraw; [6]): 8 | Blackgrass plant response rating (blackgrass; [1]): 0 | Blackgrass plant response rating (blackgrass; [7]): 0 | Blackgrass plant response rating (0 to 10 scale) (blackgrass; [2]): 4 | Blackgrass plant response rating (blackgrass; [3]): 4 | Blackgrass plant response rating (blackgrass; [4]): 6 | Blackgrass plant response rating (blackgrass; [5]): 0 | Plant response rating, Blackgrass (blackgrass; [6]): 3 | Blackgrass plant response rating (blackgrass; Rate 500 g/ha, Postemergence, scale 0 to 10): 5 | B. signalgrass plant response rating (surinam grass; [1]): 0 | B. signalgrass plant response rating (surinam grass; [7]): 3 | B. signalgrass plant response rating (0 to 10 scale) (surinam grass; [2]): 3 | B. signalgrass plant response rating (surinam grass; [3]): 5 | B. signalgrass plant response rating (surinam grass; [4]): 5 | B. signalgrass plant response rating (surinam grass; [5]): 0 | Plant response rating, B. signalgrass (surinam grass; [6]): 1 | B. signalgrass plant response rating (surinam grass; Rate 500 g/ha, Postemergence, scale of 0 to 10 where 0 is no effect and 10 is complete control): 3 | S. Flatsedge plant response rating (smallflower flatsedge; Postemergence (flood test species), Rate 125 g/ha, scale of 0 to 10 where 0 is no effect and 10 is complete control): 0 | S. Flatsedge plant response rating (smallflower flatsedge; Rate 62 g/ha, Postemergence section, flood test species, scale of 0 to 10 where 0 is no effect and 10 is complete control): 0 | Plant response rating, S. Flatsedge (smallflower flatsedge; Rate 250 g/ha, Postemergence (flood test), scale 0 to 10, 0 is no effect, 10 is complete control): 0 | S. Flatsedge plant response rating (smallflower flatsedge; Rate 500 g/ha, listed under Postemergence (flood test species), scale 0 to 10): 0

Cc1ccccc1-n1c(=O)on(C(=O)N(c2ccc(F)cc2F)C(C)C)c1=O [Compound 25]
Bedstraw plant response rating (bedstraw; [8]): 4 | Bedstraw plant response rating (bedstraw; [9]): 7 | Plant response rating, Bedstraw (bedstraw; [10]): 0 | Plant response rating, Bedstraw (bedstraw; [11]): 0 | Plant response rating, Bedstraw (bedstraw; [12]): 0 | Bedstraw plant response rating (bedstraw; [13]): 3 | Bedstraw plant response rating (bedstraw; [14]): 4 | Bedstraw plant response rating (bedstraw; [15]): 7 | Blackgrass plant response rating (blackgrass; [8]): 4 | Blackgrass plant response rating (blackgrass; [9]): 6 | Plant response rating, Blackgrass (blackgrass; [10]): 3 | Plant response rating, Blackgrass (blackgrass; [11]): 3 | Plant response rating, Blackgrass (blackgrass; [12]): 8 | Blackgrass plant response rating (blackgrass; [13]): 8 | Blackgrass plant response rating (blackgrass; [14]): 5 | Blackgrass plant response rating (blackgrass; [15]): 7 | B. signalgrass plant response rating (surinam grass; [8]): 0 | B. signalgrass plant response rating (surinam grass; [9]): 0 | Plant response rating, B. signalgrass (surinam grass; [10]): 0 | Plant response rating, B. signalgrass (surinam grass; [11]): 0 | Plant response rating, B. signalgrass (surinam grass; [12]): 7 | B. signalgrass plant response rating (surinam grass; [13]): 7 | B. signalgrass plant response rating (surinam grass; [14]): 0 | B. signalgrass plant response rating (surinam grass; [15]): 2 | S. Flatsedge plant response rating (smallflower flatsedge; [8]): 0 | S. Flatsedge plant response rating (smallflower flatsedge; Rate 125 g/ha, Postemergence section (flood test species), scale 0 to 10, 0 no effect, 10 complete control): 0 | S. Flatsedge plant response rating (smallflower flatsedge; flood test, listed under Postemergence, Rate 250 g/ha, scale 0 to 10, 0 no effect, 10 complete control): 0

Cc1cc(C)c(-n2c(=O)on(C(=O)N(c3ccc(F)cc3)C(C)C)c2=O)c(Br)c1 [Compound 224]
Bedstraw plant response rating (bedstraw; [16]): 0 | Bedstraw plant response rating (bedstraw; [12]): 0 | Plant response rating, Bedstraw (bedstraw; [17]): 0 | Bedstraw plant response rating (bedstraw; [5]): 3 | Bedstraw plant response rating (bedstraw; [18]): 3 | Bedstraw plant response rating (bedstraw; [19]): 0 | Plant response rating (0 to 10; 0 is no effect, 10 is complete control), Bedstraw (bedstraw; Rate 250 g/ha, Postemergence): 4 | Bedstraw plant response rating (bedstraw; [20]): 4 | Blackgrass plant response rating (blackgrass; [16]): 2 | Blackgrass plant response rating (blackgrass; [12]): 3 | Plant response rating, Blackgrass (blackgrass; [17]): 5 | Blackgrass plant response rating (blackgrass; [5]): 0 | Blackgrass plant response rating (blackgrass; [18]): 0 | Blackgrass plant response rating (blackgrass; [19]): 2 | Plant response rating (0 to 10; 0 is no effect, 10 is complete control), Blackgrass (blackgrass; Rate 250 g/ha, Postemergence): 3 | Blackgrass plant response rating (blackgrass; [20]): 4 | B. signalgrass plant response rating (surinam grass; [16]): 0 | B. signalgrass plant response rating (surinam grass; [3]): 4 | Plant response rating, B. signalgrass (surinam grass; [17]): 4 | B. signalgrass plant response rating (surinam grass; [5]): 0 | B. signalgrass plant response rating (surinam grass; Rate 125 g/ha, Postemergence, scale 0 (no effect) to 10 (complete control)): 0 | B. signalgrass plant response rating (surinam grass; [19]): 3 | Plant response rating (0 to 10; 0 is no effect, 10 is complete control), B. signalgrass (surinam grass; Rate 250 g/ha, Postemergence): 0 | B. signalgrass plant response rating (surinam grass; [20]): 0 | S. Flatsedge plant response rating (smallflower flatsedge; Rate 62 g/ha, headed Pre-emergence (flood test species), scale 0 to 10 (0 no effect, 10 complete control)): 0 | S. Flatsedge plant response rating (smallflower flatsedge; Rate 125 g/ha, Pre-emergence, flood test species, scale 0 to 10 where 0 is no effect and 10 is complete control): 0 | S. Flatsedge plant response rating (smallflower flatsedge; Rate 250 g/ha, Pre-emergence, flood-test species, scale 0 to 10, 0 is no effect, 10 is complete control): 0 | S. Flatsedge plant response rating (smallflower flatsedge; Rate 500 g/ha, Pre-emergence, flood test species, scale 0 to 10 (0 no effect, 10 complete control)): 0

CC(C)N(C(=O)n1oc(=O)n(CC#N)c1=O)c1ccc(F)cc1F [Compound 431]
Plant response rating, Bedstraw (bedstraw; [7]): 0 | Blackgrass plant response rating (blackgrass; [21]): 2 | Blackgrass plant response rating (blackgrass; [22]): 5 | Plant response rating, Blackgrass (blackgrass; [7]): 0 | Plant response rating, Blackgrass (blackgrass; [23]): 0 | Blackgrass plant response rating (blackgrass; [3]): 0 | Blackgrass plant response rating (blackgrass; [24]): 3 | Blackgrass plant response rating (blackgrass; [5]): 0 | Blackgrass plant response rating (blackgrass; [25]): 0 | B. signalgrass plant response rating (surinam grass; [9]): 0 | B. signalgrass plant response rating (surinam grass; [22]): 2 | Plant response rating, B. signalgrass (surinam grass; [7]): 0 | Plant response rating, B. signalgrass (surinam grass; [23]): 0 | B. signalgrass plant response rating (surinam grass; [3]): 0 | B. signalgrass plant response rating (surinam grass; [24]): 0 | B. signalgrass plant response rating (surinam grass; [5]): 0 | B. signalgrass plant response rating (surinam grass; [25]): 0 | S. Flatsedge plant response rating (smallflower flatsedge; Postemergence block (flood test species), Rate 250 g/ha, scale 0 to 10): 0 | S. Flatsedge plant response rating (smallflower flatsedge; Postemergence section (flood test species), Rate 500 g/ha, scale of 0 to 10 where 0 is no effect and 10 is complete control): 0 | S. Flatsedge plant response rating (smallflower flatsedge; Rate 125 g/ha, Postemergence section (flood test species), scale 0 to 10, 0 is no effect, 10 is complete control): 0

CC(C)N(C(=O)n1oc(=O)n(CC[N+](=O)[O-])c1=O)c1ccc(Cl)cc1 [Compound 483]
Bedstraw plant response rating (bedstraw; [26]): 0 | Plant response rating, Bedstraw (bedstraw; [16]): 0 | Bedstraw plant response rating (bedstraw; [27]): 0 | Bedstraw plant response rating (bedstraw; [3]): 0 | Blackgrass plant response rating (blackgrass; [28]): 0 | Blackgrass plant response rating (blackgrass; [29]): 0 | Blackgrass plant response rating (blackgrass; [21]): 0 | Blackgrass plant response rating (blackgrass; [26]): 0 | Plant response rating, Blackgrass (blackgrass; [16]): 0 | Blackgrass plant response rating (blackgrass; [27]): 0 | Blackgrass plant response rating (blackgrass; [3]): 0 | Blackgrass plant response rating (blackgrass; [30]): 0 | B. signalgrass plant response rating (surinam grass; [28]): 0 | B. signalgrass plant response rating (surinam grass; [29]): 0 | B. signalgrass plant response rating (surinam grass; [9]): 0 | B. signalgrass plant response rating (surinam grass; [26]): 0 | Plant response rating, B. signalgrass (surinam grass; [16]): 0 | B. signalgrass plant response rating (surinam grass; [27]): 0 | B. signalgrass plant response rating (surinam grass; [3]): 0 | B. signalgrass plant response rating (surinam grass; [30]): 0 | S. Flatsedge plant response rating (smallflower flatsedge; Rate 31 g/ha, Pre-emergence section (flood test species), scale 0 to 10): 0 | Plant response rating, S. Flatsedge (0 to 10 scale, 0 is no effect, 10 is complete control) (smallflower flatsedge; Rate 62 g/ha, flood test species, Pre-emergence, visual evaluation after twelve to sixteen days): 0 | S. Flatsedge plant response rating (0 to 10 scale, 0 is no effect, 10 is complete control) (smallflower flatsedge; Rate 125 g/ha, under heading Pre-emergence, flood test species, visual evaluation after twelve to sixteen days): 0 | S. Flatsedge plant response rating (smallflower flatsedge; Rate 250 g/ha, Pre-emergence (flood test species), scale 0 to 10, 0 is no effect, 10 is complete control): 0
